Common to all, as to assay type: cell-based
The nature of data set [1]: Cytotoxicity against human Raji cells assessed as cell viability at 100 mol ratio after 48 hrs relative to TPA. The note with it: read-out: Activity.
The test system of data set [2] is Raji. Nature of the data set: Inhibition of EBV-early antigen activation in human Raji cells assessed as early antigen activation at 1 uM ratio after 48 hrs. Also on record: scale not given: the % may be the effect or the level left.
The test system of data set [3] is Raji. Kind of data set: Inhibition of TPA-induced EBV-early antigen activation in human Raji cells assessed as early antigen activation at 1000 mol ratio after 48 hrs relative to TPA. The note with it: human gammaherpesvirus 4. On the set-up: scale not given: the % may be the effect or the level left.
Data set [4] relates to Raji. Kind of data set: Inhibition of TPA-induced EBV-early antigen activation in human Raji cells assessed as early antigen activation at 100 mol ratio after 48 hrs relative to TPA. The following applies: human gammaherpesvirus 4.
The subject of data set [5] is Raji. Kind of data set: Inhibition of TPA-induced EBV-early antigen activation in human Raji cells assessed as early antigen activation at 5000 mol ratio after 48 hrs relative to TPA. The following applies: human gammaherpesvirus 4. On the set-up: scale not given: the % may be the effect or the level left.
The nature of data set [6]: Cytotoxicity against human Raji cells assessed as cell viability at 10 mol ratio after 48 hrs relative to TPA. The note with it: read-out: Activity.
In data set [7] the test system is Raji. Nature of the data set: Inhibition of TPA-induced EBV-early antigen activation in human Raji cells assessed as early antigen activation at 10 mol ratio after 48 hrs relative to TPA. The note with it: human gammaherpesvirus 4.
The nature of data set [8]: Cytotoxicity against human Raji cells assessed as cell viability at 5000 mol ratio after 48 hrs relative to TPA. The following applies: read-out: Activity.
Data set [9] can be described thus: Cytotoxicity against human Raji cells assessed as cell viability at 1000 mol ratio after 48 hrs relative to TPA. The note with it: read-out: Activity.

SMILES strings stand for the structures.

With `CC(=O)O[C@H]1CC[C@]2(C)[C@H]3CC=C4[C@@H]5CC(C)(C)CC[C@]5(C=O)CC[C@@]4(C)[C@]3(C)CC[C@H]2C1(C)C`, in data set [1], the viability at 48 h, 100 mol ratio relative to TPA came out at 100%. Further, the results for the Activity in the data set on Raji [2], in the data set on Raji [3] and in the data set on Raji [5] were 0%, 100% and 0%, respectively. Also, the EBV early antigen activation relative to TPA in the data set with Raji [4] is 100%. Further, the viability at 48 h, 10 mol ratio relative to TPA in [6] was determined as 100%. Moreover, in the data set with Raji [7], the EBV-EA activation relative to TPA worked out at 100%. Besides, the viability at 48 h, 5000 mol ratio relative to TPA in data set [8] amounted to 40%. For the same molecule, the viability at 48 h, 1000 mol ratio relative to TPA in data set [9] was 100%.
For `CC(=O)O[C@H]1CC[C@]2(C)[C@H]3CC=C4[C@@H]5CC(C)(C)CC[C@]5(C(=O)O)CC[C@@]4(C)[C@]3(C)CC[C@H]2C1(C)C` [ACETYL OLEANOLIC ACID], the viability at 48 h, 100 mol ratio relative to TPA in data set [1] is 100%. In addition, the values for the Activity in the data set with Raji [2], with Raji [3] and with Raji [5] were 1.6%, 36.4% and 0%, respectively. The EBV early antigen activation relative to TPA in the data set with Raji [4] came to 100%. The viability at 48 h, 10 mol ratio relative to TPA in [6] worked out at 100%. The EBV-EA activation relative to TPA in the data set with Raji [7] came to 100%. Besides, the viability at 48 h, 5000 mol ratio relative to TPA in [8] amounted to 50%. Moreover, in [9], the viability at 48 h, 1000 mol ratio relative to TPA stood at 80%.
As for `C=C(C)[C@@H]1CC[C@]2(CO)CC[C@]3(C)[C@H](CC[C@@H]4[C@@]5(C)CC[C@H](O)C(C)(C)[C@@H]5CC[C@]43C)[C@@H]12` [BETULIN], the viability at 48 h, 100 mol ratio relative to TPA in data set [1] amounted to 100%. For the same molecule, the results for the Activity in the data set with Raji [2], in the data set with Raji [3] and in the data set on Raji [5] were 1.6%, 100% and 0%, respectively. In addition, the EBV early antigen activation relative to TPA with Raji [4] is 100%. In data set [6], the viability at 48 h, 10 mol ratio relative to TPA worked out at 100%. In the data set on Raji [7], the EBV-EA activation relative to TPA was determined as 100%. The viability at 48 h, 5000 mol ratio relative to TPA in data set [8] was 80%. For the same molecule, the viability at 48 h, 1000 mol ratio relative to TPA in data set [9] is 100%.
In the case of `CC1(C)CC[C@]2(CO)CC[C@]3(C)C(=CC[C@@H]4[C@@]5(C)CC[C@H](O)C(C)(C)[C@@H]5CC[C@]43C)[C@@H]2C1` [ERYTHRODIOL], in data set [1], the viability at 48 h, 100 mol ratio relative to TPA is > 80%. Besides, the Activity was found to be 0% with Raji [2], 19.3% in the data set on Raji [3] and 0% with Raji [5]. The EBV early antigen activation relative to TPA with Raji [4] was determined as 71.7%. Besides, the viability at 48 h, 10 mol ratio relative to TPA in data set [6] was 100%. The EBV-EA activation relative to TPA with Raji [7] was 100%. Also, in data set [8], the viability at 48 h, 5000 mol ratio relative to TPA was found to be 10%. Further, in data set [9], the viability at 48 h, 1000 mol ratio relative to TPA was 50%.
`C=C(C)[C@@H]1CC[C@]2(C)CC[C@]3(C)[C@H](CC[C@@H]4[C@@]5(C)CC[C@H](OC(C)=O)C(C)(C)[C@@H]5CC[C@]43C)[C@@H]12` [LUPENYL ACETATE]: the viability at 48 h, 100 mol ratio relative to TPA in data set [1] was 100%. Moreover, the figures for the Activity in the data set on Raji [2], in the data set on Raji [3] and in the data set on Raji [5] were 0%, 81.8% and 0%, respectively. Moreover, in the data set with Raji [4], the EBV early antigen activation relative to TPA is 100%. Besides, the viability at 48 h, 10 mol ratio relative to TPA in data set [6] was 100%. The EBV-EA activation relative to TPA in the data set on Raji [7] came to 100%. For the same molecule, the viability at 48 h, 5000 mol ratio relative to TPA in [8] is 60%. In addition, in [9], the viability at 48 h, 1000 mol ratio relative to TPA came to 80%.
For `COC(=O)[C@]12CCC(C)(C)C[C@H]1C1=CC[C@@H]3[C@@]4(C)C[C@@H](O)[C@H](O)C(C)(C)[C@@H]4CC[C@@]3(C)[C@]1(C)CC2` [MASLINIC ACID METHYL ESTER], the viability at 48 h, 100 mol ratio relative to TPA in data set [1] came to 100%. For the same molecule, the figures for the Activity with Raji [2], in the data set with Raji [3] and in the data set with Raji [5] were 0%, 65.6% and 0%, respectively. Further, in the data set with Raji [4], the EBV early antigen activation relative to TPA stood at 100%. In data set [6], the viability at 48 h, 10 mol ratio relative to TPA was 100%. Moreover, the EBV-EA activation relative to TPA with Raji [7] turned out to be 100%. Also, in data set [8], the viability at 48 h, 5000 mol ratio relative to TPA is 0%. Moreover, the viability at 48 h, 1000 mol ratio relative to TPA in data set [9] came to 80%.
As to `CC1(C)CC[C@]2(C(=O)O)CC[C@]3(C)C(=CC[C@@H]4[C@@]5(C)C[C@@H](O)[C@H](O)C(C)(C)[C@@H]5CC[C@]43C)[C@@H]2C1` [MASLINIC ACID], in [1], the viability at 48 h, 100 mol ratio relative to TPA amounted to 70%. The Activity with Raji [2], with Raji [3] and in the data set with Raji [5] was 0% each time. The EBV early antigen activation relative to TPA in the data set on Raji [4] came to 65.6%. The viability at 48 h, 10 mol ratio relative to TPA in data set [6] was found to be 100%. In addition, in the data set on Raji [7], the EBV-EA activation relative to TPA turned out to be 100%. Besides, the viability at 48 h, 5000 mol ratio relative to TPA in data set [8] worked out at 0%. Moreover, the viability at 48 h, 1000 mol ratio relative to TPA in [9] amounted to 0%.
As for `C=C(C)[C@@H]1CC[C@]2(C(=O)OC)CC[C@]3(C)[C@H](CC[C@@H]4[C@@]5(C)CC[C@H](O)C(C)(C)[C@@H]5CC[C@]43C)[C@@H]12` [METHYL BETULINATE], in data set [1], the viability at 48 h, 100 mol ratio relative to TPA turned out to be 100%. The figures for the Activity in the data set on Raji [2], in the data set with Raji [3] and with Raji [5] were 0%, 71.5% and 0%, respectively. The EBV early antigen activation relative to TPA in the data set on Raji [4] was 100%. For the same molecule, in data set [6], the viability at 48 h, 10 mol ratio relative to TPA was determined as 100%. Further, in the data set with Raji [7], the EBV-EA activation relative to TPA turned out to be 100%. In addition, the viability at 48 h, 5000 mol ratio relative to TPA in data set [8] stood at 80%. Also, the viability at 48 h, 1000 mol ratio relative to TPA in data set [9] was > 80%.
Take `COC(=O)[C@]12CCC(C)(C)C[C@H]1C1=CC[C@@H]3[C@@]4(C)CC[C@H](O)C(C)(C)[C@@H]4CC[C@@]3(C)[C@]1(C)CC2` [METHYL OLEANOLATE]: the viability at 48 h, 100 mol ratio relative to TPA in [1] was determined as 80%. Also, the Activity in the data set with Raji [2] is 0%; in the data set on Raji [3], 29.5%; in the data set with Raji [5] it was 0%. Moreover, the EBV early antigen activation relative to TPA with Raji [4] was 46.3%. In [6], the viability at 48 h, 10 mol ratio relative to TPA came to 100%. The EBV-EA activation relative to TPA in the data set on Raji [7] came to 100%. For the same molecule, in data set [8], the viability at 48 h, 5000 mol ratio relative to TPA worked out at 0%. Also, the viability at 48 h, 1000 mol ratio relative to TPA in data set [9] stood at 50%.
In the case of `CC1(C)CC[C@]2(C(=O)O)CC[C@]3(C)C(=CC[C@@H]4[C@@]5(C)CC[C@H](O)C(C)(C)[C@@H]5CC[C@]43C)[C@@H]2C1` [OLEANOLIC_ACID], the viability at 48 h, 100 mol ratio relative to TPA in data set [1] is > 80%. The Activity with Raji [2] was determined as 2.3%; with Raji [3], 30%; in the data set with Raji [5] it was 0%. For the same molecule, the EBV early antigen activation relative to TPA in the data set on Raji [4] came out at 80%. In addition, the viability at 48 h, 10 mol ratio relative to TPA in data set [6] is 100%. The EBV-EA activation relative to TPA in the data set on Raji [7] worked out at 100%. Further, the viability at 48 h, 5000 mol ratio relative to TPA in [8] was 20%. The viability at 48 h, 1000 mol ratio relative to TPA in data set [9] came to 60%.

These data come from ChEMBL document CHEMBL1150740, “Studies on inhibitors of skin-tumor promotion, I. Inhibitory effects of triterpenes from Euptelea polyandra on Epstein-Barr virus activation” (J Nat Prod, 1987).
